This note sets out measurements from ChEMBL document CHEMBL1134282 (J Med Chem, 2001).

The target in one experiment is Cholinesterase (Homo sapiens, UniProt P06276). In words: In vitro inhibition of human plasma butyrylcholinesterase. The format is cell-free.
Another experiment addresses Acetylcholinesterase (Homo sapiens, UniProt P22303). In words: In vitro inhibition of human erythrocyte acetylcholinesterase.

Sequence of Cholinesterase (P06276 whole entry): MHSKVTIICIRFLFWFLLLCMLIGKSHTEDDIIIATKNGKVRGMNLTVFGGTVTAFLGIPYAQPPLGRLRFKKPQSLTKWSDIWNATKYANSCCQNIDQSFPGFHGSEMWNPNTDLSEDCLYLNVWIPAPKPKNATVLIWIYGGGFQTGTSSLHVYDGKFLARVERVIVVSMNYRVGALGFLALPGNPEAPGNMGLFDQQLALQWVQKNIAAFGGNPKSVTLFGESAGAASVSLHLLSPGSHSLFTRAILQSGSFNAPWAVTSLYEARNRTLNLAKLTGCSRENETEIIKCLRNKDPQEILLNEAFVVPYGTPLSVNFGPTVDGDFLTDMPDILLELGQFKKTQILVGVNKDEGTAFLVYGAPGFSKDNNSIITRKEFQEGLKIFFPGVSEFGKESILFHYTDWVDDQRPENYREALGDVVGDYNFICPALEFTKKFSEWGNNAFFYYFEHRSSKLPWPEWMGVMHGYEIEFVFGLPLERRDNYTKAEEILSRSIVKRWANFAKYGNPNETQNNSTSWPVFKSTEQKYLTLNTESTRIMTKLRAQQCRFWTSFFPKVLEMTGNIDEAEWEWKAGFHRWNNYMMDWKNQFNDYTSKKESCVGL
Sequence of Acetylcholinesterase (P22303 whole entry): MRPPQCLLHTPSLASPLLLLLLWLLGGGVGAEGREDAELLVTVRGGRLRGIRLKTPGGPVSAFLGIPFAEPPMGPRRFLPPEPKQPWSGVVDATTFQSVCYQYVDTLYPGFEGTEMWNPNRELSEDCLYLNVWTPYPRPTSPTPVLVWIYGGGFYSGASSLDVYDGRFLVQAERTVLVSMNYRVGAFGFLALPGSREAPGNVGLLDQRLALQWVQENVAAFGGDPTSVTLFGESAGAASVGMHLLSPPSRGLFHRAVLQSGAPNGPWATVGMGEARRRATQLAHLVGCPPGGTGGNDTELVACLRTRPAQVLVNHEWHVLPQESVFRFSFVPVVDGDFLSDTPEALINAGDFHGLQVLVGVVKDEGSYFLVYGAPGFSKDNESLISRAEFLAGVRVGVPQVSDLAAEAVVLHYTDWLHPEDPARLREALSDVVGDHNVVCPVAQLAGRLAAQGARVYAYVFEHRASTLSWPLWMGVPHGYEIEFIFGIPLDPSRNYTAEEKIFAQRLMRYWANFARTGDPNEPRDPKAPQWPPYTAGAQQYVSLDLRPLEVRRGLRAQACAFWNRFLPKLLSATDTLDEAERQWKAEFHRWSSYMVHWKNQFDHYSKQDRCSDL

`CN1CC[C@@]2(C)c3cc(OC(=O)Nc4ccccc4)ccc3N(C)[C@@H]12` [PHENSERINE]: the midpoint of inhibition on Cholinesterase, the IC50, lay at 1560 nM.

The compound `Cc1ccc(NC(=O)Oc2ccc3c(c2)[C@]2(C)CCN(C)[C@@H]2N3C)c(C)c1` had a 50% inhibitory concentration (IC50) at Acetylcholinesterase of 14 nM. As to `CN(C)Cc1cc2c(cc1OC(=O)Nc1ccccc1)[C@]1(C)CCN(C)[C@@H]1N2C`, the IC50 on Cholinesterase turned out to be 3890 nM; against Acetylcholinesterase it was 2500 nM. For `CN(C(=O)Oc1ccc2c(c1)[C@]1(C)CCN(C)[C@@H]1N2C)c1ccccc1`, the IC50 against Cholinesterase was over 10000 nM; against Acetylcholinesterase, 690 nM. For the compound `Cc1cccc(C)c1NC(=O)Oc1ccc2c(c1)[C@]1(C)CCN(C)[C@@H]1N2C`, the IC50 was determined as 290 nM against Cholinesterase and 785 nM at Acetylcholinesterase. For the compound `Cc1cccc(NC(=O)Oc2ccc3c(c2)[C@]2(C)CCN(C)[C@@H]2N3C)c1C`, the IC50 against Cholinesterase was determined as 170 nM; on Acetylcholinesterase it was 23 nM. Taken in the same sequence, the figures for `CC(C)c1ccccc1NC(=O)Oc1ccc2c(c1)[C@]1(C)CCN(C)[C@@H]1N2C` were 650 nM and 15 nM. Turning to `CCc1cccc(CC)c1NC(=O)Oc1ccc2c(c1)[C@]1(C)CCN(C)[C@@H]1N2C`, half-maximal inhibition against Cholinesterase (IC50) required 1100 nM. In the case of `Cc1cc2c(cc1OC(=O)Nc1ccccc1)[C@]1(C)CCN(C)[C@@H]1N2C`, the IC50 was 5020 nM on Cholinesterase and 260 nM against Acetylcholinesterase. Consider `Cc1ccc(C)c(NC(=O)Oc2ccc3c(c2)[C@]2(C)CCN(C)[C@@H]2N3C)c1`, for which the half-inhibitory concentration (IC50) on Cholinesterase was 490 nM; against Acetylcholinesterase, 26 nM. For the compound `Cc1ccc(NC(=O)Oc2ccc3c(c2)[C@]2(C)CCN(C)[C@@H]2N3C)cc1C`, the IC50 came to 66 nM against Cholinesterase and 31 nM against Acetylcholinesterase.

For `CNC(=O)Oc1cc2c(cc1C)N(C)[C@H]1N(C)CC[C@@]21C`, the IC50 at Cholinesterase was 8530 nM; on Acetylcholinesterase it was over 10000 nM. With `Cc1cc(C)cc(NC(=O)Oc2ccc3c(c2)[C@]2(C)CCN(C)[C@@H]2N3C)c1`, the IC50 on Cholinesterase amounted to 798 nM; on Acetylcholinesterase, 78 nM. With `Cc1cccc(NC(=O)Oc2ccc3c(c2)[C@]2(C)CCN(C)[C@@H]2N3C)c1`, the IC50 at Cholinesterase came out at 165 nM; against Acetylcholinesterase, 28 nM.

Consider `CCc1ccccc1NC(=O)Oc1ccc2c(c1)[C@]1(C)CCN(C)[C@@H]1N2C` [ETHYLPHENSERINE], for which, at Acetylcholinesterase, the IC50 is 10 nM. That is a double-digit nanomolar value.
